Test results: the kinase profiling compilation of Christmann-Franck et al. (2016)

How the values were obtained:
Assay in all cases: KINOMEscan competition binding
Conditions in all cases: compound 10.0 µM
[1] = target: CDC42BPA (human) (UniProt Q5VT25)
[2] = test system: FLT3 (human), P36888 [D835H]
[3] = target: CDK5 (human) (UniProt Q00535)
[4] = target: LIMK1 (human) (UniProt P53667)
[5] = target: DDR1 (human) (UniProt Q08345)
[6] = target: MARK4 (human) (UniProt Q96L34)
[7] = target: ITK (human) (UniProt Q08881)
ITK (human), sequence (Q08881 whole entry, looked up): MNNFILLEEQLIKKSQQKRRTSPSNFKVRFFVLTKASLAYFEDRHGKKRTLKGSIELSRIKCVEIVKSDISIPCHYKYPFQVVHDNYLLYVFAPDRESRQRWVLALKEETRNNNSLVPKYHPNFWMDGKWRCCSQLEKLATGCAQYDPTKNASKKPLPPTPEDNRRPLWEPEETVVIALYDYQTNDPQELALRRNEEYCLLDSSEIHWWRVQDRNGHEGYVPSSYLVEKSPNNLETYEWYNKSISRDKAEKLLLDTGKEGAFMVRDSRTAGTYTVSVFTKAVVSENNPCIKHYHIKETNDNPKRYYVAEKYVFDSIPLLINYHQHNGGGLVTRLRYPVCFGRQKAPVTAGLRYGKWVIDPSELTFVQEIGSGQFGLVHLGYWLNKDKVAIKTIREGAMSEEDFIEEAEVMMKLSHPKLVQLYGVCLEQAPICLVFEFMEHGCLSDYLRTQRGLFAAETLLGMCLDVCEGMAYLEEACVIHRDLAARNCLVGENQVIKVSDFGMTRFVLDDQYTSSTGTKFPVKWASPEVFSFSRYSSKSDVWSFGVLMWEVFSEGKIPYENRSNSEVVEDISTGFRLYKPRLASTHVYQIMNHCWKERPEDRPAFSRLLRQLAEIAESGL

[8] = target: AXL (human) (UniProt P30530)
[9] = target: MAPK4 (human) (UniProt P31152)
[10] = target: FLT3 (human) (UniProt P36888)
[11] = target: CDK2 (human) (UniProt P24941)
[12] = target: PIM1 (human) (UniProt P11309)
PIM1 (human), sequence (P11309 whole entry, looked up): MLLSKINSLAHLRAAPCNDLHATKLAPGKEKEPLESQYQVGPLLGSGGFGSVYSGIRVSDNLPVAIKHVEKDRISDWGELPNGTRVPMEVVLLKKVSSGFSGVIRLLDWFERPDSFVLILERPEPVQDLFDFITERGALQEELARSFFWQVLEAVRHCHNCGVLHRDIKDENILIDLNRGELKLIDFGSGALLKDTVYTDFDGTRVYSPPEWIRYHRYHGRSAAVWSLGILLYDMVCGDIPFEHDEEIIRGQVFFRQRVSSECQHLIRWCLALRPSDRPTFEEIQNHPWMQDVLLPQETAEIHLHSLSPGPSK

[13] = target: PRKG1 (human) (UniProt Q13976)
[14] = test system: RET (human), P07949 [M918T]
RET (human), P07949 [M918T], sequence (P07949 whole entry M918T, looked up): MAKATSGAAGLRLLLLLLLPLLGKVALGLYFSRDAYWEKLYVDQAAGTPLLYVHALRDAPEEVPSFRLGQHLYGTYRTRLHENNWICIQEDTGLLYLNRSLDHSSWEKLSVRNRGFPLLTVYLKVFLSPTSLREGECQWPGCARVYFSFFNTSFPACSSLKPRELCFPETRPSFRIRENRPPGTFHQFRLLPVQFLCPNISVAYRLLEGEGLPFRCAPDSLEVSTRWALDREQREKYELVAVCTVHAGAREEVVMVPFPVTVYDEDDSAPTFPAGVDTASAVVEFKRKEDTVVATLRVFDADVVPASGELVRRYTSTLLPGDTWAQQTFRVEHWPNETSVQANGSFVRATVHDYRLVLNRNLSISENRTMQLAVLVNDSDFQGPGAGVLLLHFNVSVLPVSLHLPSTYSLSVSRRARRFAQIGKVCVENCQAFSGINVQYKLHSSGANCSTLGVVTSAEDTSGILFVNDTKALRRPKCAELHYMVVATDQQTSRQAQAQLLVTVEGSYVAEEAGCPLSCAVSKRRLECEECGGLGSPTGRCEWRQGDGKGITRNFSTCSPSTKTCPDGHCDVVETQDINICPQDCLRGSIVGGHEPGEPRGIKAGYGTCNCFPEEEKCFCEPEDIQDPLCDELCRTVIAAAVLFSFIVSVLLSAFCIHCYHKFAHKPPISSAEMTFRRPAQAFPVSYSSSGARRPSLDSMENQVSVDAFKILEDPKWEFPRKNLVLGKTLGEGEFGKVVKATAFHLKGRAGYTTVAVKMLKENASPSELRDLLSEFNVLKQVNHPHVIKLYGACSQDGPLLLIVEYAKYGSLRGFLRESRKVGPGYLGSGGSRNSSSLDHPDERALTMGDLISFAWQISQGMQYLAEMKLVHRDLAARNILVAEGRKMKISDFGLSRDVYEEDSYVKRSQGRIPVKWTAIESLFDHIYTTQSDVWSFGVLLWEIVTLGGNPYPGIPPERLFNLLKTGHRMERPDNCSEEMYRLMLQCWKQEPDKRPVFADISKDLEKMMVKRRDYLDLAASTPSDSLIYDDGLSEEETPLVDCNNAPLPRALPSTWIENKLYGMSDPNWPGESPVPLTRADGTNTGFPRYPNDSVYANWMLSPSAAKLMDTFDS

[15] = target: EPHA1 (human) (UniProt P21709)
[16] = target: WEE1 (human) (UniProt P30291)
[17] = target: CAMKK2 (human) (UniProt Q96RR4)
[18] = target: TNK2 (human) (UniProt Q07912)
[19] = target: MELK (human) (UniProt Q14680)
[20] = target: MAPK8 (human) (UniProt P45983)
MAPK8 (human), sequence (P45983 whole entry, looked up): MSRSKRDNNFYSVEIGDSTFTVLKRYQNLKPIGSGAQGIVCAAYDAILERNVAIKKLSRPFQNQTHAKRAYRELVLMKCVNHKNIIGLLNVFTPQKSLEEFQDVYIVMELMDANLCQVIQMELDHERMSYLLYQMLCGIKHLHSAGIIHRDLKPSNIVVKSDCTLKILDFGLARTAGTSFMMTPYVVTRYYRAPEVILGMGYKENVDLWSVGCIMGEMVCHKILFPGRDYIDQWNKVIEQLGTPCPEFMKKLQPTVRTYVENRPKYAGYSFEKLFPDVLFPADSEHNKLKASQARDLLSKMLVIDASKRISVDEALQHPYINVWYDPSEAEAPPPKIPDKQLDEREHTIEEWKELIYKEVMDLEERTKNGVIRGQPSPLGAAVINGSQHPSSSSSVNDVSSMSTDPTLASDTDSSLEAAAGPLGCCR

[21] = target: RPS6KA4 KD1 (human) (UniProt O75676)
[22] = target: CDK7 (human) (UniProt P50613)
CDK7 (human), sequence (P50613 whole entry, looked up): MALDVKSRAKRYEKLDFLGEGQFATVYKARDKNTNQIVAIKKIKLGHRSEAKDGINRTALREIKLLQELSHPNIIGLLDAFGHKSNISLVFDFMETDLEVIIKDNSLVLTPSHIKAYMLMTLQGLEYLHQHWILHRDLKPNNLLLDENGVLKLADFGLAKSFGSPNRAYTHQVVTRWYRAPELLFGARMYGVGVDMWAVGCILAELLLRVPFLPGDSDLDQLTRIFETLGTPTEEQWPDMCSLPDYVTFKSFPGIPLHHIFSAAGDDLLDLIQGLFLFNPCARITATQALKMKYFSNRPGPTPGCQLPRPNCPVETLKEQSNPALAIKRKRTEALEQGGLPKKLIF

[23] = target: ZAP70 (human) (UniProt P43403)
[24] = target: MAPK3 (human) (UniProt P27361)
MAPK3 (human), sequence (P27361 whole entry, looked up): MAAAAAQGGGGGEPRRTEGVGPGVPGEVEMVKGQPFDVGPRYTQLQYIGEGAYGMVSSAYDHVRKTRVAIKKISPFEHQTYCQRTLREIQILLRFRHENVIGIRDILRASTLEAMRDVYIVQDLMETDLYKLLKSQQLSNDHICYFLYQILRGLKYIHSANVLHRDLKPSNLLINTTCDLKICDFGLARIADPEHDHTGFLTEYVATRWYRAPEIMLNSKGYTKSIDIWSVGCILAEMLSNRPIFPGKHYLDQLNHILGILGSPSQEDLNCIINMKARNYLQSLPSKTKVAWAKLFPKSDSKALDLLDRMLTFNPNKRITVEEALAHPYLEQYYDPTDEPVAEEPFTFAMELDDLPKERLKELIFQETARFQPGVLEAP

[25] = target: BRSK2 (human) (UniProt Q8IWQ3)
[26] = target: AKT3 (human) (UniProt Q9Y243)
[27] = target: IKBKE (human) (UniProt Q14164)
[28] = target: BTK (human) (UniProt Q06187)
[29] = target: LCK (human) (UniProt P06239)
[30] = target: PLK4 (human) (UniProt O00444)
[31] = target: TTK (human) (UniProt P33981)
TTK (human), sequence (P33981 whole entry, looked up): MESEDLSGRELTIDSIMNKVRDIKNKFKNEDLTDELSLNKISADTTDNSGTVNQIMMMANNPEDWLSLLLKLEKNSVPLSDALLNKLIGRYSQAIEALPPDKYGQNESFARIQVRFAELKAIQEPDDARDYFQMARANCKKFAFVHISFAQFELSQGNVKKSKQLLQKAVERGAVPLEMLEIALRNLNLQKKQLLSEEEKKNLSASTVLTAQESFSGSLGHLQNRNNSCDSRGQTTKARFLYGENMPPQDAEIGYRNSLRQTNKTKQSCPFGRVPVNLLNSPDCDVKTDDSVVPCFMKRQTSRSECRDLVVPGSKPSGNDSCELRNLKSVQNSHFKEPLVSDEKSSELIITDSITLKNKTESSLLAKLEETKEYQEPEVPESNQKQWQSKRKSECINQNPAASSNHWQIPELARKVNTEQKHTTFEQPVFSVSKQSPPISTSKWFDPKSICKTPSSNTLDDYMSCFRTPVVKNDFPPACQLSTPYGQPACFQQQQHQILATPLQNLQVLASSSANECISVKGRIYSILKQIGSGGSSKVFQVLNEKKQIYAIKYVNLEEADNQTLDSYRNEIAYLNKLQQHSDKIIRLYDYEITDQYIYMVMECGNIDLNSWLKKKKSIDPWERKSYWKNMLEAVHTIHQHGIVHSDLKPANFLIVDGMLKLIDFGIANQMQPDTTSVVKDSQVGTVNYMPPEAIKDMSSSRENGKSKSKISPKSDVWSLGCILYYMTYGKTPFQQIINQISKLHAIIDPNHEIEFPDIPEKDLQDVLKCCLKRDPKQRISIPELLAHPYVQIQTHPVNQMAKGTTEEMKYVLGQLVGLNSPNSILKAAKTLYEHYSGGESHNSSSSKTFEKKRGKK

[32] = target: EPHB4 (human) (UniProt P54760)
EPHB4 (human), sequence (P54760 whole entry, looked up): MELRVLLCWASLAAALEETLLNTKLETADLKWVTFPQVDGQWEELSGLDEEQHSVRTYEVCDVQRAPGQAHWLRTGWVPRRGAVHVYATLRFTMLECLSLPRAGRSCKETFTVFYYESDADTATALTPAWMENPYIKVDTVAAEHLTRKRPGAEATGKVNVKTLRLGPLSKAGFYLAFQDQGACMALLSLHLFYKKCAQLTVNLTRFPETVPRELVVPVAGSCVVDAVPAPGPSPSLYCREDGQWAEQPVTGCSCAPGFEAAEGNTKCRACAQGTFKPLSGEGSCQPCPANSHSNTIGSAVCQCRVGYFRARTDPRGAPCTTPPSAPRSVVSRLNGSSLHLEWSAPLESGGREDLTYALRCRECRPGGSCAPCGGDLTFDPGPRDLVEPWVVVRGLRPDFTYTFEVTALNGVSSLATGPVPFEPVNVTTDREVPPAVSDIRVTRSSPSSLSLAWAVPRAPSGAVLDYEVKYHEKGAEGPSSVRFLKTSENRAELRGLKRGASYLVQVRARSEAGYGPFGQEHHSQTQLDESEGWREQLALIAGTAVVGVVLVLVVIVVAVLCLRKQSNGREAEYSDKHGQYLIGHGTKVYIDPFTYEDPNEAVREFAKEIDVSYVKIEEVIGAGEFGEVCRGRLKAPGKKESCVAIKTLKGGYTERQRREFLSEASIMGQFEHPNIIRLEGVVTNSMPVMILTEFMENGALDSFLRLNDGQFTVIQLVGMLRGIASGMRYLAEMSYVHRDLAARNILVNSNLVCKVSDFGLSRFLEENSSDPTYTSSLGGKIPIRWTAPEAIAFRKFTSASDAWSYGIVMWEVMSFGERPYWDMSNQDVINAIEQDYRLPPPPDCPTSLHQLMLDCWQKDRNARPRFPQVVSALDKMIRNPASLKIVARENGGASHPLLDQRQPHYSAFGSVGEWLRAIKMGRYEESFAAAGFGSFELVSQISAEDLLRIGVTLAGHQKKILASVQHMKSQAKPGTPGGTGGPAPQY

[33] = target: RIPK4 (human) (UniProt P57078)
[34] = target: PIK3CB (human) (UniProt P42338)
[35] = target: MAP3K7 (human) (UniProt O43318)

SMILES | kinase still bound, per cent of control [1] [%] | kinase still bound, per cent of control [2] [%] | kinase still bound, per cent of control [4] [%] | kinase still bound, per cent of control [5] [%] | kinase still bound, per cent of control [6] [%] | kinase still bound, per cent of control [7] [%] | kinase still bound, per cent of control [8] [%] | kinase still bound, per cent of control [9] [%] | kinase still bound, per cent of control [10] [%] | kinase still bound, per cent of control [11] [%] | kinase still bound, per cent of control [12] [%] | kinase still bound, per cent of control [13] [%] | kinase still bound, per cent of control [14] [%] | kinase still bound, per cent of control [15] [%] | kinase still bound, per cent of control [16] [%] | kinase still bound, per cent of control [17] [%] | kinase still bound, per cent of control [18] [%] | kinase still bound, per cent of control [19] [%] | kinase still bound, per cent of control [20] [%] | kinase still bound, per cent of control [21] [%] | other results
CCN(CC)CCCCNc1ncc2cc(-c3cc(OC)cc(OC)c3)c(NC(=O)NC(C)(C)C)nc2n1 | 100 | 100 | 100 | 1.1 | 100 | 100 | 100 | 100 | 100 | 100 | 100 | 100 | 100 | 100 | 100 | 100 | 100 | 100 | 100 | 100 | kinase still bound, per cent of control [3]: 100%; kinase still bound, per cent of control [22]: 100%; kinase still bound, per cent of control [23]: 100%; kinase still bound, per cent of control [24]: 100%; kinase still bound, per cent of control [25]: 100%; kinase still bound, per cent of control [26]: 100%; kinase still bound, per cent of control [27]: 100%; kinase still bound, per cent of control [28]: 100%; kinase still bound, per cent of control [29]: 22%; kinase still bound, per cent of control [30]: 100%; kinase still bound, per cent of control [31]: 100%; kinase still bound, per cent of control [32]: 100%
Cc1n[nH]c2ccc(-c3cncc(OC[C@@H](N)Cc4c[nH]c5ccccc45)c3)cc12 | 6.6 | 5 | 100 | 100 | 100 | 100 | 14 | 100 | 4.5 | 100 | 0.4 | 0.65 | 100 | 100 | 100 | 2 | 100 | 12 | 100 | 100 | kinase still bound, per cent of control [33]: 100%; kinase still bound, per cent of control [34]: 100%; kinase still bound, per cent of control [22]: 0.3%; kinase still bound, per cent of control [23]: 100%; kinase still bound, per cent of control [35]: 3.2%; kinase still bound, per cent of control [24]: 100%; kinase still bound, per cent of control [25]: 100%; kinase still bound, per cent of control [26]: 2.9%; kinase still bound, per cent of control [27]: 24%; kinase still bound, per cent of control [28]: 100%; kinase still bound, per cent of control [29]: 100%; kinase still bound, per cent of control [30]: 100%; kinase still bound, per cent of control [31]: 100%; kinase still bound, per cent of control [32]: 100%
CNC(=O)c1ccc(Nc2cc(Nc3ccccc3S(=O)(=O)C(C)C)c3cc[nH]c3n2)nc1 | 100 | 0.65 | 100 | 100 | 4 | 0.15 | 1.3 | 100 | 2.4 | 100 | 100 | 100 | 1.4 | 100 | 100 | 100 | 1 | 100 | 7.3 | 2.2 | kinase still bound, per cent of control [3]: 28%; kinase still bound, per cent of control [33]: 100%; kinase still bound, per cent of control [34]: 100%; kinase still bound, per cent of control [22]: 1.8%; kinase still bound, per cent of control [23]: 100%; kinase still bound, per cent of control [35]: 0.35%; kinase still bound, per cent of control [24]: 100%; kinase still bound, per cent of control [25]: 100%; kinase still bound, per cent of control [26]: 100%; kinase still bound, per cent of control [27]: 100%; kinase still bound, per cent of control [28]: 0.65%; kinase still bound, per cent of control [29]: 0.3%; kinase still bound, per cent of control [30]: 4.5%; kinase still bound, per cent of control [31]: 4.6%; kinase still bound, per cent of control [32]: 100%
